# “Also recorded” adds a separate entry of the source.
# How the values were obtained:
# [1] = target: T1, ΔF508-CFTR (Homo sapiens, UniProt P13569, DEL508-508); assay: Short-circuit current in FRT cells expressing ΔF508-CFTR after corrector (VX-809); assay type: cell-based; details: overnight corrector
# T1 construct: expressed in transfected cells; host or cells: Fischer rat thyroid (FRT) cells
# Description: FIGS. 9A-9E. Characterization of CFTR activation by CFTRact-J027. Short-circuit current measured in FRT cells expressing human wild-type CFTR (FIG. 9A) and ΔF508-CFTR (FIG. 9C) showing responses to indicated concentrations of forskolin (fsk), CFTRact-J027, and VX-770. The ΔF508-CFTR-expressing FRT cells were corrected with 3 μM VX-809 at 37° C. for 24 h before measurement. CFTRinh-172 (Inh-172, 10 μM) was added where indicated. FIG. 9B. CFTRact-J027 concentration-dependent activation of wild-type CFTR Cl^− current (S.E.; n=3 cultures). FIG. 9D. Short-circuit current in mouse colon showing responses to indicated concentrations of forskolin (fsk), CFTRact-J027, and CFTRinh-172. FIG. 9E. Assay of cAMP concentration in FRT cells measured following 10-min incubation with indicated concentrations of forskolin and 5 μM CFTRact-J027. Positive controls included forskolin (100 nM and 20 μM), and forskolin plus 3-isobutyl-1-methylxanthine (IBMX, 100 μM) (mean±SE, n=4-8).
# The increase in current at high CFTRact-J027 was further increased by forskolin, which may be a consequence of activation of a basolateral membrane cAMP-sensitive K^+ channel that increases the driving force for apical membrane Cl^− secretion.
# [2] = test system: mice; assay: In vivo whole-gut transit time; parameters: species or system mouse
# Description: Whole-gut transit time was determined using an orally administered marker (200 μL, 5% Evans Blue, 5% gum Arabic) and measuring the time of its appearance in stool. Mice were administered loperamide and CFTRact-J027 (10 mg/kg) or vehicle intraperitoneally at zero time. For ex vivo contractility measurements, mice were euthanized by avertin overdose (200 mg/kg, 2,2,2-tribromethanol, Sigma-Aldrich) and ileum and colon segments of ˜2 cm length were isolated and washed with Krebs-Henseleit buffer. The ends of the intestinal segments were tied, connected to a force transducer (Biopac Systems, Goleta, Calif., USA) and tissues were transferred to an organ chamber (Biopac Systems) containing Krebs-Henseleit buffer at 37° C. aerated with 95% O2, 5% CO2. Ileum and colon were stabilized for 60 min with resting tensions of 0.5 and 0.2 g respectively, and solutions were changed every 15 min. Effects of CFTRact-J027 on baseline and loperamide-suppressed isometric intestinal contractions were recorded.
# In vivo intestinal transit and ex vivo intestinal contractility. Whole-gut transit time was determined using an orally administered marker (200 μL, 5% Evans Blue, 5% gum Arabic) and measuring the time of its appearance in stool. […] Effects of CFTRact-J027 on baseline and loperamide-suppressed isometric intestinal contractions were recorded.
# [3] = test system: closed mid-jejunal loops of cystic fibrosis mice; assay: In vivo intestinal fluid absorption in closed mid-jejunal loops of CF mice; parameters: species or system mouse; details: 30 min
# Description: Mice (wildtype or CF) were given access to 5% dextrose water but not solid food for 24 h before experiments. Mice were anesthetized with isoflurane and body temperature was maintained during surgery at 36-38° C. using a heating pad. A small abdominal incision was made to expose the small intestine, and closed mid-jejunal loops (length 2-3 cm) were isolated by sutures. Loops were injected with 100 μL vehicle alone or 100 μg CFTRact-J027 in vehicle. The abdominal incision was closed with sutures, and mice were allowed to recover from anesthesia. Intestinal loops were removed at 90 min and loop length and weight were measured to quantify fluid secretion. Intestinal absorption was measured in CF mice (to prevent secretion) as described above, except that the loops were removed at 0 or 30 min. Absorption was calculated as 1−(loop weight at 0 min−loop weight at 30 min)/loop weight at 0 min.
# In vivo intestinal secretion and absorption. Mice (wildtype or CF) were given access to 5% dextrose water but not solid food for 24 h before experiments. […] Intestinal loops were removed at 90 min and loop length and weight were measured to quantify fluid secretion. Intestinal absorption was measured in CF mice (to prevent secretion) as described above, except that the loops were removed at 0 or 30 min. Absorption was calculated as 1−(loop weight at 0 min−loop weight at 30 min)/loop weight at 0 min.
# [4] = test system: mouse liver microsomes; assay: In vitro metabolic stability in mouse liver microsomes; assay type: in vitro ADME
# Description: (§1) CFTRact-J027 (5 μM) was incubated for specified times at 37° C. with mouse liver microsomes (1 mg protein/ml; Sigma-Aldrich) in potassium phosphate buffer (100 mM) containing 1 mM NADPH, as described. The mixture was then chilled on ice, and 0.5 ml of ice-cold ethyl acetate was added. Samples were centrifuged for 15 min at 3000 rpm, the supernatant evaporated to dryness, and the residue was dissolved in 100 μL mobile phase (acetonitrile:water, 3:1) for LC/MS and assayed as described above.
# as §1, with “In vitro metabolic stability. CFTRact-J027” for “CFTRact-J027”
# T1 sequence (P13569 with tags, fused parts or gaps DEL508-508): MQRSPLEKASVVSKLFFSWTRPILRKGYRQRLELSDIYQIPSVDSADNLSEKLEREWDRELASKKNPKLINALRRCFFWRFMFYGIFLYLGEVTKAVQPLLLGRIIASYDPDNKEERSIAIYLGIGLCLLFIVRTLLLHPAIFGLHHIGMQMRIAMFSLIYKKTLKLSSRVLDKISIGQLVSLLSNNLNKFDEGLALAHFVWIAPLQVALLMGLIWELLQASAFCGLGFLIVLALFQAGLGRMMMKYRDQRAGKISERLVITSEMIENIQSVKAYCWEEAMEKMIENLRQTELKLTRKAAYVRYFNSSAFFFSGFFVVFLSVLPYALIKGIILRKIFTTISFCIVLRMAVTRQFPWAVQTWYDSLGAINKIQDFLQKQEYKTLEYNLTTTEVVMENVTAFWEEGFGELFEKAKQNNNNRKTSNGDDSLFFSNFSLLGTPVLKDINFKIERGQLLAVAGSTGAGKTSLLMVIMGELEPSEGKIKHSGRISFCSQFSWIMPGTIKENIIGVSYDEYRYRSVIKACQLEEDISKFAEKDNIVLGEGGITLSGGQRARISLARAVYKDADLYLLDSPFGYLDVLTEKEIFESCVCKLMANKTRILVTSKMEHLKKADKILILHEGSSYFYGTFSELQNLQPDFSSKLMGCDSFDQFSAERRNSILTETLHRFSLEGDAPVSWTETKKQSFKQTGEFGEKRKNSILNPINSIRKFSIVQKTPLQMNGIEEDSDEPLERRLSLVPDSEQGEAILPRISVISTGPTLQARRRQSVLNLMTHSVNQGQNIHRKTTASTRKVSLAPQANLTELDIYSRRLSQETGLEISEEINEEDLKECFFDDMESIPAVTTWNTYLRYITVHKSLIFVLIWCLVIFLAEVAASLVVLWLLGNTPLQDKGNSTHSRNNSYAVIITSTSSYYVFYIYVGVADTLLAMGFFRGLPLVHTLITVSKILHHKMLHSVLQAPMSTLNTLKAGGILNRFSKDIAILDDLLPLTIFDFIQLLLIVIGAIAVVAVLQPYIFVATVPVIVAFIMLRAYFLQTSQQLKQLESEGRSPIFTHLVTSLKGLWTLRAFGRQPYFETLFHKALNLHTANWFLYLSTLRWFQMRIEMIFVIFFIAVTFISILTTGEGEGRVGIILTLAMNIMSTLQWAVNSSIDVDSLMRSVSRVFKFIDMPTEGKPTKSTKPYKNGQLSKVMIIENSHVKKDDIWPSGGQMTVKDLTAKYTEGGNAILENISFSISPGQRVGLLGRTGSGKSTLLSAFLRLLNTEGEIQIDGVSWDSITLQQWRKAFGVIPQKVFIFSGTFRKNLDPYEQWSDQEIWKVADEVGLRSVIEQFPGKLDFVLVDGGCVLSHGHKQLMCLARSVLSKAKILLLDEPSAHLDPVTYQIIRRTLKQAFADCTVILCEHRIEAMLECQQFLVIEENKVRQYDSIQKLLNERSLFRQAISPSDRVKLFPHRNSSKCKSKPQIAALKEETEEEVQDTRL
compound,measurement,setting,value
"Nc1ccc([N+](=O)[O-])cc1-c1nc2ccccc2n(Cc2ccccc2)c1=O [CFTRact-J027, 3-(2-amino-5-nitrophenyl)-1-benzylquinoxalin-2(1H)-one]",potentiation of ΔF508-CFTR,[1],substantially less potent than ivacaftor; also recorded: only a weak potentiator
same,whole-gut transit time,"[2]; 10 mg/kg ip, loperamide-treated wild-type mice",normalized
same,whole-gut transit time in cystic fibrosis mice,[2]; CF mice,no effect
same,intestinal fluid absorption,[3],did not affect intestinal fluid absorption
same,elimination half-life in microsomes,"[4]; 5 μM, mouse liver microsomes, NADPH",~21 min
same,original compound remaining at 60 min,[4]; 60 min,7%
same,"hepatic microsomal metabolism, in words","[4]; mouse liver microsomes, NADPH",rapid hepatic metabolism; also recorded: rapidly metabolized
